According to patent US9995734B2, “Human T cell line assay for evaluating the immunologic identity of glatiramer acetate preparations” (Mylan Inc., priority 2013, dated 2018):

What was measured:
Donor 3 GMA T-Cell Lines = assay: ATP proliferation assay (CellTiter Glo), Donor 3 GMA T-cell lines, incl. reactivity to non-canonical GA peptides; assay type: cell-based, human; details: for Proliferation (luminescent ATP assay), Mean / Mean, ATP proliferation assay: T-cell line 165-H11G
Donor 3 COP T-Cell Lines = assay: ATP proliferation assay (CellTiter Glo), Donor 3 COP T-cell lines, incl. reactivity to non-canonical GA peptides; assay type: cell-based, human; details: for Reactivity (proliferation), Mean: Day 54 of culture

With glatiramer acetate [GMA] the “Proliferation (luminescent ATP assay), Mean” value (Donor 3 GMA T-Cell Lines; 2.5 μg/mL antigen, autologous B-LCL) was 33793 RLU, the “Proliferation (luminescent ATP assay), Mean” value (Donor 3 GMA T-Cell Lines; 3 μg/mL antigen, Day 50 of culturing, No Antigen Value 1485) was 46539 RLU and the “Mean, ATP proliferation assay” value (Donor 3 GMA T-Cell Lines; 3 μg/mL, Day 40) was 27515. The “Proliferation (luminescent ATP assay), Mean” value (Donor 3 GMA T-Cell Lines; 5 μg/mL antigen, autologous B-LCL) was 70949 RLU, the “Proliferation (luminescent ATP assay), Mean” value (Donor 3 GMA T-Cell Lines; 10 μg/mL antigen, Day 50 of culturing, No Antigen Value 1485) was 49104 RLU and the “Proliferation (luminescent ATP assay), Mean” value (Donor 3 GMA T-Cell Lines; 10 μg/mL antigen, autologous B-LCL) was 72728 RLU. For the same substance, the “Mean, ATP proliferation assay” value (Donor 3 GMA T-Cell Lines; 10 μg/mL, Day 40) was 44067, the “Proliferation (luminescent ATP assay), Mean” value (Donor 3 GMA T-Cell Lines; 30 μg/mL antigen, Day 50 of culturing, No Antigen Value 1485) was 32179 RLU and the “responsiveness in proliferation assay” value (Donor 3 GMA T-Cell Lines; all 8 Donor 3 GMA cell lines tested, Day 32, 10 μg/mL (Table 19)) was “responsive”. The “responsiveness in proliferation assay” value (Donor 3 GMA T-Cell Lines; eleven of the 12 cell lines (all but F2G), Day 40, 1, 3 or 10 μg/mL (Table 21)) was “responsive”, the “response in ATP proliferation assay” value (Donor 3 COP T-Cell Lines; 165-D2C, 165-C7C, 165-C4C, Day 39, three concentrations (Table 24)) was “responded comparably” and the “Reactivity (proliferation), Mean” value (Donor 3 COP T-Cell Lines; T-cell line 165-B6C, 1 μg/mL antigen, No Antigen 2358) was 3939 RLU. For the same substance, the “Mean, ATP proliferation assay” value (Donor 3 COP T-Cell Lines; T-cell line 165-B6C, 1 μg/mL, Day 46, after 3 days) was 9925 RLU, the “Reactivity (proliferation), Mean” value (Donor 3 COP T-Cell Lines; T-cell line 165-B6C, 3 μg/mL antigen, No Antigen 2358) was 19344 RLU and the “Mean, ATP proliferation assay” value (Donor 3 COP T-Cell Lines; T-cell line 165-B6C, 3 μg/mL, Day 46, after 3 days) was 38105 RLU. The “Reactivity (proliferation), Mean” value (Donor 3 COP T-Cell Lines; T-cell line 165-B6C, 10 μg/mL antigen, No Antigen 2358) was 29012 RLU, the “Mean, ATP proliferation assay” value (Donor 3 COP T-Cell Lines; T-cell line 165-B6C, 10 μg/mL, Day 46, after 3 days) was 25839 RLU and the “Reactivity (proliferation), Mean” value (Donor 3 COP T-Cell Lines; T-cell line 165-B6C, 100 μg/mL antigen, No Antigen 2358) was 9856 RLU. For the same substance, the “Mean, ATP proliferation assay” value (Donor 3 COP T-Cell Lines; T-cell line 165-B6C, Day 32, 10 μg/mL) was 1058 RLU, the “Reactivity (proliferation), Mean” value (Donor 3 COP T-Cell Lines; T-cell line 165-B10C, 1 μg/mL antigen, No Antigen 2234) was 1942 RLU and the “Mean, ATP proliferation assay” value (Donor 3 COP T-Cell Lines; T-cell line 165-B10C, 1 μg/mL, Day 46, after 3 days) was 5592 RLU. For the same substance, the “Reactivity (proliferation), Mean” value (Donor 3 COP T-Cell Lines; T-cell line 165-B10C, 3 μg/mL antigen, No Antigen 2234) was 2658 RLU, the “Mean, ATP proliferation assay” value (Donor 3 COP T-Cell Lines; T-cell line 165-B10C, 3 μg/mL, Day 46, after 3 days) was 13012 RLU and the “Reactivity (proliferation), Mean” value (Donor 3 COP T-Cell Lines; T-cell line 165-B10C, 10 μg/mL antigen, No Antigen 2234) was 5854 RLU. For the same substance, the “Mean, ATP proliferation assay” value (Donor 3 COP T-Cell Lines; T-cell line 165-B10C, 10 μg/mL, Day 46, after 3 days) was 19866 RLU, the “Reactivity (proliferation), Mean” value (Donor 3 COP T-Cell Lines; T-cell line 165-B10C, 100 μg/mL antigen, No Antigen 2234) was 6380 RLU and the “Proliferation (luminescent ATP assay), Mean” value (Donor 3 COP T-Cell Lines; T-cell line 165-C4C, 1 μg/mL antigen, Day 66 of culture, 0 μg/mL 1881) was 2668. The “Mean, ATP proliferation assay” value (Donor 3 COP T-Cell Lines; T-cell line 165-C4C, 1 μg/mL, Day 39) was 9367, the “Proliferation (luminescent ATP assay), Mean” value (Donor 3 COP T-Cell Lines; T-cell line 165-C4C, 3 μg/mL antigen, Day 66 of culture, 0 μg/mL 1881) was 16108 and the “Mean, ATP proliferation assay” value (Donor 3 COP T-Cell Lines; T-cell line 165-C4C, 3 μg/mL, Day 39) was 26279. The “Proliferation (luminescent ATP assay), Mean” value (Donor 3 COP T-Cell Lines; T-cell line 165-C4C, 10 μg/mL antigen, Day 66 of culture, 0 μg/mL 1881) was 88509, the “Mean, ATP proliferation assay” value (Donor 3 COP T-Cell Lines; T-cell line 165-C4C, 10 μg/mL, Day 39) was 31014 and the “Mean, ATP proliferation assay” value (Donor 3 COP T-Cell Lines; T-cell line 165-C7C, 1 μg/mL, Day 39) was 3307. For the same substance, the “Proliferation (luminescent ATP assay), Mean” value (Donor 3 COP T-Cell Lines; T-cell line 165-C7C, 1.25 μg/mL antigen, autologous B-LCL) was 610 RLU, the “Proliferation (luminescent ATP assay), Mean” value (Donor 3 COP T-Cell Lines; T-cell line 165-C7C, 2.5 μg/mL antigen, autologous B-LCL) was 2699 RLU and the “Mean, ATP proliferation assay” value (Donor 3 COP T-Cell Lines; T-cell line 165-C7C, 3 μg/mL, Day 39) was 12832. For the same substance, the “Proliferation (luminescent ATP assay), Mean” value (Donor 3 COP T-Cell Lines; T-cell line 165-C7C, 5 μg/mL antigen, autologous B-LCL) was 22588 RLU, the “Proliferation (luminescent ATP assay), Mean” value (Donor 3 COP T-Cell Lines; T-cell line 165-C7C, 10 μg/mL antigen, autologous B-LCL) was 24029 RLU and the “Mean, ATP proliferation assay” value (Donor 3 COP T-Cell Lines; T-cell line 165-C7C, 10 μg/mL, Day 39) was 42739. The “Mean, ATP proliferation assay” value (Donor 3 COP T-Cell Lines; T-cell line 165-D2C, 1 μg/mL, Day 39) was 3881, the “Mean, ATP proliferation assay” value (Donor 3 COP T-Cell Lines; T-cell line 165-D2C, 3 μg/mL, Day 39) was 7503 and the “Mean, ATP proliferation assay” value (Donor 3 COP T-Cell Lines; T-cell line 165-D2C, 10 μg/mL, Day 39) was 13253. For the same substance, the “Reactivity (proliferation), Mean” value (Donor 3 COP T-Cell Lines; T-cell line 165-D3C, 1 μg/mL antigen, No Antigen 8319) was 24131 RLU, the “Mean, ATP proliferation assay” value (Donor 3 COP T-Cell Lines; T-cell line 165-D3C, 1 μg/mL, Day 46, after 3 days) was 61535 RLU and the “Reactivity (proliferation), Mean” value (Donor 3 COP T-Cell Lines; T-cell line 165-D3C, 3 μg/mL antigen, No Antigen 8319) was 58814 RLU.
